Data: patent publication US8497261B2, “3-aminocaprolactam compounds for treating inflammatory disorders” (Cambridge Enterprise Limited, priority 2004, dated 2013)
Blank lines part the entries; values can stand above or below the compound they belong to.

Key:
Stability in human serum = type: in vitro ADME; details: 37° C.
Source text: As an approach to identifying such stable anlogs, various derivatives of (S)-3-(undec-10-enoyl)-aminoglutarimide have been tested for their stability in serum.

[1] = test system: chemokine-induced migration; assay: Chemokine-induced migration in vitro (prior compounds); type: cell-based; details: compared with (S)-3-(undec-10-enoyl)-aminoglutarimide
[2] = cited from earlier work

time completely stable in human serum (Stability in human serum): at least 7 days
Compound: C=CCCCCCCCCC(=O)[C@@H]1CCCNC1=O [(S)-3-(undec-10-enoyl)-tetrahydropyridin-2-one]
potency compared with the parental molecule [1]: considerably reduced potency

Compound: c(DCys-DG1n-DIle-DTrp-DLys-DG1n-DLys-DPro-DAsp-DLeu-DCys)-NH2 [NR583.14.3]
half-life period of clearance from blood plasma ([2]; after intravenous injection): less than 30 minutes
oral bioavailability ([2]; in vivo, po): not orally bioavailable

melting point: 182 to 184 °C
Compound: CCCCC[C@H]1CC[C@H](C(=O)N[C@H]2CCCNC(=O)C2)CC1 [Example 4, (S)-3-(trans-4′-pentylcyclohexane-1-carbonyl)amino-caprolactam]
